The test system of one experiment is red blood cells. Put plainly: Red blood cell integrity during storage at 4° C. Type of experiment: cell-based. Also noted: MCV Day 20 / MCV Day 33: unit not given here. Particulars: for RBC Day 1: whole blood; for MCV Day 20 / MCV Day 33: whole blood stored at 4° C. The procedure:
(§1) In this experiment whole blood (an aliquot of which clotted within 10 minutes without anticoagulant) was modified by adding a number of different anticoagulant compositions. Sodium citrate was used as an anticoagulant at 0.65%, 0.75% and 0.9% by weight. These are all higher citrate levels than the usual 0.4% by weight. Amino acid citrates (lysine or arginine) were used at 0.65%, 0.75% and 0.9% by weight based on the weight of the citric acid. The amino acid counterion was used in sufficient quantity to adjust the pH as explained above.
To judge red cell condition the blood was counted and various other measurements were taken initially and after 20 and 33 days of storage at 4° C. Apparent initial/differences in RBC counts are due to dilution caused by adding extra anticoagulant. Mean cell volume (MCV) is a red cell index that is a useful measure of red cell health. […] It is believed that a citrate level of at least about 1.0% by weight (i.e., more than two times the usual amount) is necessary to ensure against all activation of plasma proteins. […] On the other hand, amino acid citrates, which are very effective anticoagulants, are also effective at preventing red cell damage.

In a further experiment the test system is clot formation. Nature of the experiment: Clotting times (PT, PTT) of anticoagulated whole blood. Type of experiment: biochemical. On the procedure: as §1
In experiment [1] the test system is clotting enzyme activation (D-dimers). Nature of the experiment: D-dimer test (DimerTest latex agglutination) for cryptic activation in citrated plasma. Type of experiment: biochemical. On the procedure: The samples were divided into four 1 ml aliquots. To three of the sample aliquots, sufficient concentrated citrate solution was added to achieve 1%, 1.5% or 2% weight/volume citrate, respectively, while the fourth aliquot acted as the control.
As a “worst case” scenario to detect activation, the aliquots were incubated at 21° C. for a maximum of ten days. Each aliquot was assayed daily for the presence of D-dimers using the DimerTest latex agglutination assay (American Diagnostica, Stamford, Conn.). The results are shown in Table 1 where the number of days to observable D-dimers is listed for each aliquot. […] At day six of incubation, 41.2% (14) of the control aliquots were positive for the presence of D-dimers. By day seven, 100% (34) of the normal citrate (0.4%) aliquots were positive for D-dimers.

SMILES strings stand for the structures. Where “and” joins values, the source holds several entries; their conditions need not be identical. Equal values may be shown once.

Regarding `N=C(N)NCCC[C@H](N)C(=O)O.O=C(O)CC(O)(CC(=O)O)C(=O)O` [Arg Citrate, arginine citrate], the “RBC Day 1” value in the experiment on red blood cells (anticoagulant 0.65 wgt %) was 5.77 10^6/μl; in the experiment on red blood cells (anticoagulant 0.75 wgt %) it was 6.45 10^6/μl; with red blood cells (anticoagulant 0.90 wgt %), 6.77 10^6/μl. The “MCV Day 20” value in the experiment on red blood cells (anticoagulant 0.65 wgt %) is 93.1; with red blood cells (anticoagulant 0.75 wgt %) it was 92.6; with red blood cells (anticoagulant 0.90 wgt %), 91.5. The “MCV Day 33” value in the experiment on red blood cells (anticoagulant 0.65 wgt %) stood at 93.5; in the experiment with red blood cells (anticoagulant 0.75 wgt %), 93.6; with red blood cells (anticoagulant 0.90 wgt %), 92.4. Further, the “PT (4 hrs at RT)” value in the experiment with clot formation (anticoagulant 0.65 wgt %) amounted to 15.8 s; with clot formation (anticoagulant 0.75 wgt %), 20.2 s; with clot formation (anticoagulant 0.90 wgt %) it was 55 s. The figures for the “PTT (4 hrs at RT)” value with clot formation (anticoagulant 0.65 wgt %), with clot formation (anticoagulant 0.75 wgt %) and in the experiment on clot formation (anticoagulant 0.90 wgt %) were 36.8 s, 39.9 s and 56.8 s, respectively.

Consider `O=C(O)CC(O)(CC(=O)O)C(=O)O` [Citrate], for which, in experiment [1] (0.4% Citrate, plasma at 21° C., maximum ten days), the “number of days to observable D-dimers” value was 6 days and 7 days and 5 days. The “aliquots positive for the presence of D-dimers” value in experiment [1] (0.4% citrate control aliquots, day six of incubation) was determined as 41.2%. Besides, the “aliquots positive for D-dimers” value in experiment [1] (0.4% citrate, by day seven) is reported as 100%. In addition, in experiment [1] (additional citrate (1%, 1.5%, 2%)), the “aliquots that showed D-dimers by day ten” value was “None”.

Source of the values: patent publication US20090123907A1 (priority 2004, published 2009).
